Source: paper PMC9563435, “Comparison of Different Clinical Chemotherapeutical Agents’ Toxicity and Cell Response on Mesenchymal Stem Cells and Cancer Cells” (Cells, 2022)
“Also recorded” adds a separate entry of the source. Structures can show the parent of a compound that is named as a salt.

Assays:
[1] = test system: Ad-MSC 3 cells; assay: Apoptosis assay (Annexin V / TO-PRO-3 flow cytometry), Ad-MSC 3; type: cell-based, human; details: for apoptosis induction in MSCs (in words): several concentrations, data not shown; for type of cell death in MSCs (in words): high concentrations: doxorubicin 1 µM, nutlin-3 50 µM
Method: Apoptosis detection was based on the Annexin-V molecule binding to phosphatidylserine membrane molecules. Two cell lines were used to study apoptosis: Ad-MSC 3 cells were plated in a 5 × 10^4 cells/well concentration, while 4 × 10^4/well A431-mCh were seeded into each well in a 12-well tissue culture plate. […] At day 5, cells were trypsinized and centrifuged, while the supernatant was also collected and combined with the detached cells to include all already dead cells. Cells were washed twice with 500 µL of 1% BSA-PBS (bovine serum albumin dissolved in PBS, A8022, Sigma-Aldrich, St. Louis, MO, USA) solution and centrifuged at 400× G for 4 min. Cells were resuspended in 100 µL of 1× Annexin Binding Buffer (422201, Biolegend, San Diego, CA, USA), and 3 µL of Annexin V-Pacific Blue (A35122, Biolegend, San Diego, CA, USA) and 1 µL of TO-PRO-3 (R37170, Invitrogen, Waltham, MA, USA) were added to each sample. After 15 min of incubation, labeled and non-labeled samples were diluted 5-fold with 1× Annexin Binding Buffer and analyzed by Attune™ NxT flow cytometer.

[2] = test system: 6 MSCs and 3 cancer cell lines; assay: Cytotoxicity / cell viability assay (PrestoBlue), panel of MSCs and cancer cell lines; type: cell-based, human; details: for drug sensitivity of MSCs compared with cancer cells (in words): IC50 comparison
Method: (§1) Cells were seeded in a 96-well tissue culture plate in 100 µL of medium. Ad-MSC-GFP 1, iAd-MSC-GFP 1, Ad-MSC-GFP 2, Ad-MSC-GFP 3, BM-MSC, and HFF were seeded at 5 × 10^3/100 µL/well density and A431-mCh, MES-SA-mCh, and MCF-7-GFP at 4 × 10^3 cells/100 µL/well concentration in DMEM-F12 media. Different initial cell numbers were used due to different proliferation rates of different cell types. Cells were allowed to attach overnight at 37 °C and the day after were treated with the drugs using the indicated concentrations in 100 µL. Cell viability was measured by using PrestoBlue™ Cell Viability Reagent (A13232, Invitrogen, Waltham, MA, USA). To address metabolic differences between cancer cells and MSCs, the assay was optimized for each cell line, cells were incubated with 5 or 12.5% PrestoBlue™ Cell Viability Reagent diluted in PBS at 37 °C/5% CO2 for 1–1.5 h 5 days after the treatment. The fluorescence signal was measured by an EnSpire (Perkin Elmer, Waltham, MA, USA) fluorometer at 555 nm (excitation)/585 nm (emission) wavelength.
After the incubation period, the relative fluorescence data was measured. The data was normalized with the fluorescence of blank samples (cell culture media). A sigmoidal dose–response curve was fitted to the normalized measurement data and the logarithm of the concentration using the least square method. An inhibitory concentration of 50% (IC50 and log10) was interpolated from the fitted graph. […] In these cases, IC50 was calculated from the line connecting the measurement points. For repeated measurements, average and standard deviation was calculated based on the logarithm of the IC50 values.
To compare the mean IC50 values of six mesenchymal stem cell lines (Group-1) and three cancer cell lines (Group-2), first an F-test was performed to check equal variances between the groups, then two-sample unpaired t-tests were performed to calculate significance using Microsoft® Excel® 2016 (16.0.4266.1001).

[3] = test system: Ad-MSC-GFP 3 cells; assay: Live cell imaging, confluency, Ad-MSC-GFP 3; type: cell-based, human
Method: (§2) JuLI™ Stage Cell History Recorder was used to monitor a five-day cytotoxicity assay on Ad-MSC-GFP 3 and A431-mCh cell lines. […] Images were taken every 105 min for 120 h at 10× objective magnification. Live cell microscopy studies were evaluated using the “Growth curve” function of the JuLI STAT image analysis software (v2.0.1.0).

[4] = test system: A431-mCh cells; assay: Live cell imaging, confluency, A431-mCh; type: cell-based, human; details: 120 h
Method: as §2

[5] = test system: Ad-MSC-GFP 3 cells; assay: γ-H2AX staining of DNA double-stranded breaks, Ad-MSC-GFP 3; type: cell-based, human; details: 120 h; IC50 concentrations of A431 (2 µM cisplatin, 0.1 µM doxorubicin, 30 µM nutlin-3)
Method: (§3) Ad-MSC-GFP 3 cells were seeded into glass-bottomed chamber slides (ibidi, Germany, Grafelfing, Germany) at 1 × 10^4/well and A431-mCh at 1.6 × 10^4/well density. […] Cells in all chambers were fixed with 4% PFA for 15 min and washed twice with PBS. Blocking solution (0.5% BSA-PBS, 0.1% TritonX-100, 5% goat serum, and 1% fish gelatin) was used for 1 h. γ-H2A.X primary antibody (MA1-2022, Invitrogen, United States) was diluted in blocking solution at 1:500 concentration and incubated overnight at 4 °C. Afterwards, the cells were washed with PBS twice and goat anti-mouse A633 secondary antibody (A21052, abcam, Cambridge, UK) was diluted at 1:250 concentration in blocking solution. Nuclei was stained with a Hoechst-33342 (23491-52-3, Dojindo, Kumamoto, Japan) at 1:1000 concentration.
(§4) To quantify DNA damage based on immunofluorescence against γ-H2AX, a semi-automated image analysis pipeline was set up using CellProfiler v4.1.3 [10]. First, images showing DAPI-stained nuclei were pre-processed by intensity normalization and Gaussian filtering (ϭ = 20 px) to suppress noise and remove artifacts caused by debris. Nuclei candidates were identified by threshold-based segmentation; false candidates were removed from the analysis manually. Using the remaining nuclei regions as masks, pixel intensities were measured on the γ-H2AX channel, thus, excluding non-nuclei signals.

[6] = test system: A431-mCh cells; assay: γ-H2AX staining of DNA double-stranded breaks, A431-mCh; type: cell-based, human; details: 120 h; IC50 concentrations of A431 (2 µM cisplatin, 0.1 µM doxorubicin, 30 µM nutlin-3)
Method: as §3, §4

[7] = test system: Ad-MSC 3 cells; assay: ROS induction (DCFH-DA), Ad-MSC 3; type: cell-based, human; details: 1 h
Method: (§5) Ad-MSC 3 and A431 cells were seeded in a 96-well tissue culture plate and incubated for 24 h as described above. Cells were washed twice with HBSS and incubated in 100 µL of DCFH-DA dye (R252-10, Dojindo) according to the manufacturer’s instructions. Cells were incubated for 30 min at 37 °C and washed twice with HBSS. […] Supernatant was removed, and the cells were washed with HBSS before imaging with the JuLI^TM Stage Cell History Recorder (NanoEnTek).

[8] = test system: A431 cells; assay: ROS induction (DCFH-DA), A431; type: cell-based, human; details: 1 h
Method: as §5

[9] = test system: A431 cells; assay: Apoptosis assay (Annexin V / TO-PRO-3 flow cytometry), A431; details: 120 h
[10] = test system: A431-mCh cells; assay: Cytotoxicity / cell viability assay (PrestoBlue) on A431; type: cell-based, human
Method: as §1
(§6) After the incubation period, the relative fluorescence data was measured. The data was normalized with the fluorescence of blank samples (cell culture media). […] In these cases, IC50 was calculated from the line connecting the measurement points. For repeated measurements, average and standard deviation was calculated based on the logarithm of the IC50 values.

[11] = test system: Ad-MSC-GFP 3 cells; assay: Cytotoxicity / cell viability assay (PrestoBlue) on Ad-MSC-GFP 3; type: cell-based, human; details: Homo sapiens, 120 h; Ad-MSC-GFP 3 / Ad-MSC 3, 5 days
Method: as §1, §6

[12] = test system: Ad-MSC 3 cells; assay: Cell proliferation (CytoTell) and light microscopy after treatment, Ad-MSC 3; type: cell-based, human; details: 0.1 µM
Method: (§7) Cell division was analyzed by the fluorescent CytoTell Green dye (AAT Bioquest, Sunnyvale, CA, USA) according to the manufacturer’s guidelines. Briefly, 3 × 10^5 cells were centrifuged and stained with 2 µL of CytoTell dye diluted in 1 mL of serum-free DMEM and incubated at 37 °C for 30 min. After centrifugation, half of the cells (1.5 × 10^5) were plated into T25 cell culture flasks in 5 mL of media and analyzed at day 5. Day 1 samples were co-stained with Zombie Violet dye (423113, Biolegend) to exclude dead cells and analyzed by Attune™ NxT flow cytometry. Brightfield images were taken with the Olympus IX51 microscope. The scale bar is the same in every image.

[13] = test system: A431 cells; assay: Cell proliferation (CytoTell) and light microscopy after treatment, A431; type: cell-based, human; details: 0.1 µM
Method: as §7

[14] = different concentrations incl. higher

Structure (SMILES): [Cl][Co][Cl] [cobalt chloride]
- apoptosis induction in MSCs (in words) [1]: not able to induce apoptosis

Structure (SMILES): CCc1c2c(nc3ccc(OC(=O)N4CCC(N5CCCCC5)CC4)cc13)-c1cc3c(c(=O)n1C2)COC(=O)[C@]3(O)CC [irinotecan, irinotecan hydrochloride]
- drug sensitivity of MSCs compared with cancer cells (in words) ([2]; 5 days treatment): required significantly higher concentrations to kill MSCs than cancer cells

Structure (SMILES): COc1ccc(C2=N[C@@H](c3ccc(Cl)cc3)[C@@H](c3ccc(Cl)cc3)N2C(=O)N2CCNC(=O)C2)c(OC(C)C)c1 [nutlin-3]
- concentration at which significant drops in confluency were seen, as multiple of Ad-MSC-GFP 3 IC50 ([3]; 120 h live cell imaging): 3 fold
- effect on cultures in live cell imaging ([4]; either concentration, p53 mutant): no effect
- DNA double-stranded breaks (γ-H2AX) [5]: no DNA break was detected
- DNA damage (γ-H2AX) [6]: massive DNA damage
- ROS induction ([7]; 30 µM): considerable amount of ROS
- ROS induction ([8]; 30 µM): considerable amount of ROS
- apoptosis (in words) ([1]; 30 µM, 120 h): only a slight increase in the number of apoptotic MSCs
- type of cell death in MSCs (in words) [1]: necrotic cell death
- apoptosis (in words) ([9]; 30 µM): modest apoptotic response

Structure (SMILES): CN(Cc1cnc2nc(N)nc(N)c2n1)c1ccc(C(=O)N[C@@H](CCC(=O)O)C(=O)O)cc1 [methotrexate]
- drug sensitivity of MSCs compared with cancer cells (in words) ([2]; 5 days treatment): only toxic to A431-mCherry cells
- sensitivity of A431 cells (in words) ([10]; compared with the other cell lines): extreme sensitivity; also recorded: hypersensitive

Structure (SMILES): CN[C@@H]1C[C@H]2O[C@@](C)([C@@H]1OC)n1c3ccccc3c3c4c(c5c6ccccc6n2c5c31)C(=O)NC4 [staurosporine]
- apoptosis induction in MSCs (in words) [1]: not able to induce apoptosis

Structure (SMILES): COc1cccc2c1C(=O)c1c(O)c3c(c(O)c1C2=O)C[C@@](O)(C(=O)CO)C[C@@H]3O[C@H]1C[C@H](N)[C@H](O)[C@H](C)O1 [doxorubicin, doxorubicin hydrochloride]
- drug sensitivity of MSCs compared with cancer cells (in words) ([2]; 5 days treatment): equally toxic to MSCs and cancer cells
- IC50 [11]: 0.1 µM
- IC50 ([10]; Homo sapiens, A-431, 120 h, A431, 5 days): 0.1 µM
- decrease of cultures in live cell imaging ([3]; 120 h of treatment): no significant decrease
- number of viable colonies in live cell imaging ([4]; IC50 of A431-mCh and 10-fold higher concentration): significantly reduced the number of viable colonies
- growth kinetics in live cell imaging ([4]; concentration 10-fold lower than A431-mCh IC50): did not alter growth kinetics
- DNA double-stranded breaks (γ-H2AX) [5]: no DNA break was detected
- DNA damage (γ-H2AX) [6]: massive DNA damage
- ROS induction [7, 14]: did not induce ROS
- ROS induction [8, 14]: did not induce ROS
- apoptosis (in words) ([1]; 0.1 µM, 120 h): apoptosis was not detected
- apoptosis / cell death (in words) ([1]; concentration increased 10-fold (1 µM), 120 h): only late necrosis was found
- type of cell death in MSCs (in words) [1]: necrotic cell death
- cell number (light microscopy) [12]: reduced cell number
- proliferation (CytoTell) ([12]; five-day treatment): decreased proliferation
- cell killing (light microscopy) [13]: killed most of the cancer cells
- proliferation (CytoTell) ([13]; five-day treatment): decreased proliferation
- apoptosis (in words) ([9]; 0.1 µM): apoptosis in almost all A431 cells

Structure (SMILES): Cn1nnc2c(C(N)=O)ncn2c1=O [temozolomide]
- IC50 ([2]; Homo sapiens, all cell lines of the screening, read-out: toxic concentration in the IC50 screening (not toxic even at)): > 1000 µM

Structure (SMILES): CC[C@]1(O)C[C@@H]2CN(CCc3c([nH]c4ccccc34)[C@@](C(=O)OC)(c3cc4c(cc3OC)N(C)[C@H]3[C@@](O)(C(=O)OC)[C@H](OC(C)=O)[C@]5(CC)C=CCN6CC[C@]43[C@@H]65)C2)C1 [vinblastine]
- drug sensitivity of MSCs compared with cancer cells (in words) ([2]; 5 days treatment): required significantly higher concentrations to kill MSCs than cancer cells
- IC50 values in MSCs relative to cancer cells ([2]; 5 days treatment, MSCs higher than cancer cells): 1000 fold

Structure (SMILES): O=C1c2c(O)ccc(O)c2C(=O)c2c(NCCNCCO)ccc(NCCNCCO)c21 [mitoxantrone]
- drug sensitivity of MSCs compared with cancer cells (in words) ([2]; 5 days treatment): required significantly higher concentrations to kill MSCs than cancer cells
- apoptosis induction in MSCs (in words) [1]: not able to induce apoptosis

Structure (SMILES): c1ccc(CN(CCN(Cc2ccccn2)Cc2ccccn2)Cc2ccccn2)nc1 [TPEN]
- drug sensitivity of MSCs compared with cancer cells (in words) ([2]; 5 days treatment): equally toxic to both MSCs and cancer cells

Structure (SMILES): OO [H2O2]
- apoptosis induction in MSCs (in words) [1]: not able to induce apoptosis
